From paper PMC8426237, “A first-in-human phase I study of TAS0728, an oral covalent binding inhibitor of HER2, in patients with advanced solid tumors with HER2 or HER3 aberrations” (Investigational New Drugs, 2021)

Experiments:
[1] = design: method as in PMID 30787176; conditions: efficacious doses in mouse models; cited from earlier work
[2] = system: xenograft models of tumors with acquired resistance to trastuzumab/pertuzumab or to T-DM1; design: method as in PMID 32248641; conditions: cited from earlier work
[3] = system: advanced solid tumors with HER2 or HER3 aberrations; assay: Antitumor activity, objective tumor assessment by RECIST1.1; format: in vivo, human
Excerpt: Objective tumor assessments were made according to the revised response evaluation criteria in solid tumors [RECIST1.1] [8] from evaluation of magnetic resonance imaging (MRI)/computed tomography (CT) scans made at screening (baseline) and after every 2 cycles during the first 6 months of treatment with TAS0728, and after every 3 cycles of treatment thereafter.

[4] = Dose-limiting toxicities, 3 + 3 dose escalation, first cycle; format: in vivo, human; conditions: for Any DLTs / DLT: Grade ≥ 3 diarrhea only if lasting >48 h and unresponsive to intensive antidiarrheal medication: DLT-evaluable population; for Patients with DLT AEs: all treated population
Description: Based on preclinical toxicological studies and PK analysis, the starting dose of TAS0728 was 50 mg BID. Dose escalation followed a 3 + 3 dose-escalation scheme and planned to proceed using the following dose levels BID: 50 mg, 100 mg, 200 mg, 400 mg, 600 mg and 800 mg. TAS0728 was administered during a 21-day cycle.
If a DLT was identified at a particular dose level, de-escalation was made to an intermediate de-escalation dose level. […] The MTD was to be the dose level at which 0 of 6 or 1 of 6 patients experienced a DLT, with at least 2 patients experiencing DLTs at the next higher dose level. For the determination of the MTD, DLTs that occurred during the first cycle (i.e., first 21 days) of TAS0728 treatment were considered. Patients who experienced AEs were allowed two dose reductions during the study. TAS0728 treatment could be continued until disease progression, unacceptable toxicity, withdrawal of consent, or at the discretion of the investigator.

[5] = system: HER2 overexpressed cancer cells; design: method as in PMID 30787176; conditions: cited from earlier work
HER2 = system: HER2; design: method as in PMID 30787176; conditions: cited from earlier work
[6] = human, in vivo
Description: A DLT was defined as a study treatment-related adverse event (TRAE), according to the Common Terminology Criteria for Adverse Events (CTCAE, Version 5.0), with qualifying criteria for certain DLTs (e.g., Grade ≥ 3 diarrhea, was included as a DLT only if lasting >48 h and unresponsive to intensive antidiarrheal medication).
Patients were closely monitored for these potential toxicities during the current study. Safety assessments included recording of AEs and serious AEs (SAEs) from the time of signing the study informed consent form to 30 days after the last dose of study medication. Safety parameters including laboratory evaluations (hematology, coagulation, chemistry, and urinalysis), vital sign measurements and body weight, electrocardiogram (ECG) recordings, ECOG performance status, echocardiogram or multi-gated acquisition (MUGA), and physical examination were assessed at screening, during the study and at 30 days following the last dose. The use of concomitant medications was permitted and details for such medications were recorded.

[7] = Plasma pharmacokinetics after single and multiple oral doses; format: in vivo, human
Description: Multiple blood samples were collected on day 1 of cycles 1 and 2 (i.e., pre-dose, post-dose at +0.5 h, +1 h, +1.5 h, +2 h, +3 h, +4 h, +6 h, +8 h, +12 h) for analysis of plasma PK after administration of single and multiple doses respectively; urine samples were collected 0–3 h prior to morning dose and 0–12 h post-morning dose on day 1 of cycle 1.
Continuous data were summarized with frequency, median, range, mean, standard deviation and standard error if relevant. Categorical data were presented as frequencies and percentages. 95% confidence intervals (CI) were calculated following the exact method. A p value <0.05 was considered statistically significant. Data were analyzed using the SAS® system software version 9.3 for Windows® (Statistical Analysis System, Cary, NC, USA). The PK data were analyzed using Phoenix WinNonlin (Version 6.4 or later, Certara L.P; Princeton New Jersey, United States). All analyses were descriptive and exploratory; no formal statistical testing was conducted.

[8] = planned dose 50 mg, cycle 1, day 1, mean, n 3
[9] = planned dose 50 mg, cycle 1, day 1, n 3
[10] = planned dose 100 mg, cycle 1, day 1, mean, n 3
[11] = planned dose 100 mg, cycle 1, day 1, n 3
[12] = planned dose 100 mg, cycle 2, day 1, mean, n 2
[13] = planned dose 100 mg, cycle 2, day 1, mean, n 3
[14] = planned dose 100 mg, cycle 2, day 1, n 3
[15] = planned dose 150 mg, cycle 1, day 1, mean, n 5
[16] = planned dose 150 mg, cycle 1, day 1, mean, n 6
[17] = planned dose 150 mg, cycle 1, day 1, n 6
[18] = planned dose 150 mg, cycle 2, day 1, mean, n 2
[19] = planned dose 150 mg, cycle 2, day 1, n 2
[20] = planned dose 200 mg, cycle 1, day 1, mean, n 6
[21] = planned dose 200 mg, cycle 1, day 1, mean, n 7
[22] = planned dose 200 mg, cycle 1, day 1, n 7
[23] = planned dose 200 mg, cycle 2, day 1, mean, n 2
[24] = planned dose 200 mg, cycle 2, day 1, n 2

In the case of C=CC(=O)N1CCC[C@@H](n2nc(C(=O)Nc3ccc(CC(=O)N(C)C)c(C)c3C)c3c(N)ncnc32)C1 [TAS0728], the Diarrhea during treatment [1] is given as “did not induce diarrhea”, the Anti-tumor effect [2] is given as “significant anti-tumor effects” and the “Time on treatment before disease progression, patient with PR (BTC, HER2 amplification)” value ([3]; 200 mg BID, no dose adjustment) is given as 136 days. For the same compound, the “Patients with disease control (best overall tumor response of PR or SD)” value ([3]; all dose levels) was 10, the “Objective responses (PR)” value ([3]; of 19 treated patients, NSCLC with HER2 mutation at 50 mg BID, BTC with HER2 amplification at 200 mg BID) was “two” and the “Any DLTs” value ([4]; 50 mg BID (N = 3)) was 0 n, (%). The “DLT: Grade ≥ 3 diarrhea only if lasting >48 h and unresponsive to intensive antidiarrheal medication” value (“DLT … to intensive antidiarrheal medication” below) ([4]; 50 mg BID (N = 3)) was 0 n, (%), the “Patients with DLT AEs” value ([4]; 50 mg BID (N = 3)) was 0 n, (%) and the “Any DLTs” value ([4]; 100 mg BID (N = 3)) was 0 n, (%). For the same compound, the “DLT … to intensive antidiarrheal medication” value ([4]; 100 mg BID (N = 3)) was 0 n, (%), the “Patients with DLT AEs” value ([4]; 100 mg BID (N = 3)) was 0 n, (%) and the “Any DLTs” value ([4]; 150 mg BID (N = 3)) was 1 (33.3) n, (%). The “DLT … to intensive antidiarrheal medication” value ([4]; 150 mg BID (N = 3)) was 1 (33.3) n, (%), the “Patients with DLT AEs” value ([4]; 150 mg BID (N = 6)) was 1 (16.7) n, (%) and the “DLTs observed (Grade 3 diarrhea lasting >48 h, not responsive to antidiarrheal treatment)” value ([4]; 200 mg BID) was “two”. The “Any DLTs” value ([4]; 200 mg BID (N = 6)) was 2 (33.3) n, (%), the “DLT … to intensive antidiarrheal medication” value ([4]; 200 mg BID (N = 6)) was 2 (33.3) n, (%) and the “Patients with DLT AEs” value ([4]; 200 mg BID (N = 7)) was 2 (28.6) n, (%). For the same compound, the “Patients with DLT AEs” value ([4]; Overall (N = 19)) was 3 (15.8) n, (%), the “Any DLTs” value ([4]; Total (N = 15)) was 3 (20.0) n, (%) and the “DLT … to intensive antidiarrheal medication” value ([4]; Total (N = 15)) was 3 (20.0) n, (%). The “Inhibitory activity for overexpressed/amplified HER2 and mutated HER2 in cancer cells” value [5] was “potent inhibitory activity”, the “Antiproliferative activity against HER2 overexpressed cancer cells” value ([5]; in vitro and in vivo) was “antiproliferative activity” and the “Specificity for HER2 over wild-type EGFR” value (HER2) was “high specificity for HER2 over wild-type EGFR”. For the same compound, the “Inhibitory effect against HER2 and HER3 versus EGFR” value (HER2; nonclinical studies) was “much greater against HER2 and HER3 than against EGFR”, the “Patients with urinary tract infection” value [6] was 28.6% and the “Accumulation of TAS0728 exposure” value ([7]; BID multiple-dose administration) was “No significant accumulation”. The t1/2 ([7]; cycle 1, day 1, all dose levels) was “approximately 2.0 h”, the “AUC0–12” value [7, 8] was 2437 ng·h/mL and the AUCinf [7, 8] was 2470 ng·h/mL. For the same compound, the AUClast [7, 8] was 2415 ng·h/mL, the Cmax [7, 8] was 1162 ng/mL and the t1/2 [7, 8] was 1.96 h. The Tmax maximum [7, 9] was 1.58 h, the Tmax median [7, 9] was 0.50 h and the Tmax minimum [7, 9] was 0.50 h. For the same compound, the “AUC0–12” value [7, 10] was 5669 ng·h/mL, the AUCinf [7, 10] was 5765 ng·h/mL and the AUClast [7, 10] was 5626 ng·h/mL. For the same compound, the Cmax [7, 10] was 2039 ng/mL, the t1/2 [7, 10] was 1.90 h and the Tmax maximum [7, 11] was 3.05 h. For the same compound, the Tmax median [7, 11] was 0.58 h, the Tmax minimum [7, 11] was 0.53 h and the “AUC0–12” value [7, 12] was 5475 ng·h/mL. For the same compound, the “R(AUC0–12), observed accumulation ratio of AUC0–12” value [7, 12] was 0.87, the t1/2 [7, 12] was 2.17 h and the AUClast [7, 13] was 4276 ng·h/mL. The Cmax [7, 13] was 1389 ng/mL, the “R (Cmax), observed accumulation ratio of Cmax” value [7, 13] was 0.56 and the Tmax maximum [7, 14] was 6.20 h. The Tmax median [7, 14] was 3.03 h, the Tmax minimum [7, 14] was 0.92 h and the “AUC0–12” value [7, 15] was 12,946 hr*ng/mL. For the same compound, the AUCinf [7, 15] was 13,158 hr*ng/mL, the t1/2 [7, 15] was 1.91 h and the AUClast [7, 16] was 19,523 hr*ng/mL. For the same compound, the Cmax [7, 16] was 5402 ng/mL, the Tmax maximum [7, 17] was 1.05 h and the Tmax median [7, 17] was 0.59 h. The Tmax minimum [7, 17] was 0.50 h, the “AUC0–12” value [7, 18] was 14,782 hr*ng/mL and the AUClast [7, 18] was 14,782 hr*ng/mL. The Cmax [7, 18] was 3460 ng/mL, the “R (Cmax), observed accumulation ratio of Cmax” value [7, 18] was 0.91 and the “R(AUC0–12), observed accumulation ratio of AUC0–12” value [7, 18] was 1.61. For the same compound, the t1/2 [7, 18] was 3.11 h, the Tmax maximum [7, 19] was 1.58 h and the Tmax median [7, 19] was 1.30 h. The Tmax minimum [7, 19] was 1.02 h, the “AUC0–12” value [7, 20] was 14,653 hr*ng/mL and the AUCinf [7, 20] was 15,046 hr*ng/mL. For the same compound, the t1/2 [7, 20] was 2.05 h, the AUClast [7, 21] was 15,108 hr*ng/mL and the Cmax [7, 21] was 5091 ng/mL. It also gave a Tmax maximum [7, 22] of 3.92 h, a Tmax median [7, 22] of 1.00 h and a Tmax minimum [7, 22] of 0.45 h. For the same compound, the “AUC0–12” value [7, 23] was 11,459 hr*ng/mL, the AUClast [7, 23] was 11,248 hr*ng/mL and the Cmax [7, 23] was 2565 ng/mL. The “R (Cmax), observed accumulation ratio of Cmax” value [7, 23] was 0.96, the “R(AUC0–12), observed accumulation ratio of AUC0–12” value [7, 23] was 1.18 and the t1/2 [7, 23] was 3.13 h. It also gave a Tmax maximum [7, 24] of 3.25 h, a Tmax median [7, 24] of 1.88 h and a Tmax minimum [7, 24] of 0.52 h.
